# Where no end group is shown, it is not given here.
# How the values were obtained:
# [1] = tested on: peripheral blood mononuclear cells (PBMCs); assay: Cytokine production by stimulated peripheral blood mononuclear cells (LegendPlex-Kits); format: cell-based; conditions: PBMCs from different donors; MDP 20 µg/ml, others 6 and 30 µg/ml
# Protocol: (§1) The figures show: • Figure 1: Extent of sequence homology of the nine Lpl proteins encoded by the lpl operon in S. aureus USA300. […] LSP, leader signal peptide. Total length without LSP is 267 aa. We have chosen Lpli as a prototype of Lpl proteins for further studies. • Figure 2: L13 and L15 inhibit S. aureus internalization by HaCaT cells and N/TERT1 cells. N/TERT-1 are immortalized human keratinocytes. L15 was used at 20 µM), L13 at 30 µM and geldanamycin at 5 µM. SNC1 is representative for the many peptides that had no effect • Figure 3: Alignment of Lpl protein homologs. (A) Multiple sequence alignment of Lpls generated by using SnapGene software. Amino acids that match the Lpli sequence are highlighted in yellow. […] A therapeutic model (treatment at intervals post-infection) is already envisaged in the course of this project. • Figure 5: Quantification of the secreted cytokine IL-23 after stimulation of peripheral blood mononuclear cells of different donors with various cell wall components of Staphylococcus aureus. […] The measured IL-23 concentrations are depicted in pg/ml ± standard error of mean (SEM). • Figure 6: Prediction of Lpli structure and localization of L15 (top row, binding area indicated by white arrows) and L13 (bottom row, binding area indicated by white arrows) in Lpli. […]
# Hsp90 = conditions: upon Hsp90 inhibition (Taiyab & Rao Ch, 2011); cited from earlier work
# in vitro = format: cell-based; conditions: human; 24h and 48h of exposure; MTT and resazurin; MM6, HEK293, HaCaT, HeLa, HT-29; read-out: cytotoxicity (viability), concentration
# Protocol: (§2) Cytotoxicity assays were conducted on 5 different mammalian cell lines after 24h and 48h of exposure to the various compounds, using the colorimetric tetrazolium dye MTT and the fluorometric resazurin (Alamar Blue): MM6 (human cell line with characteristics of mature monocytes), HEK293 (human embryonic kidney cells), HaCaT (human keratinocyte cell line), HeLa (human cervical cancer cell line) and HT-29 (human colon cancer cell line).
# Solubility remark = format: physicochemical; conditions: compared with L15; reason why only L15 was used in mice
# [2] = tested on: MM6, HEK293, HaCaT, HeLa and HT-29; assay: Cytotoxicity assays (MTT and resazurin/Alamar Blue) on 5 mammalian cell lines; format: cell-based, human; conditions: 24h and 48h of exposure
# Protocol: as §2
# S. aureus = assay: Septic arthritis mouse model (mouse sepsis model); format: in vivo; conditions: mice treated with L15
# Protocol: as §1
molecule,measurement,setting,value
"CC(=O)N[C@H]1C(O)O[C@H](CO)[C@@H](O)[C@@H]1O[C@H](C)C(=O)N[C@@H](C)C(=O)N[C@H](CCC(=O)O)C(N)=O (mixture of isomers) [Muramyl Dipeptide (MDP), Muramyl Dipeptide]","levels of TNF, IL-1β, IL-6 or IL-10 induced",[1],high levels
"C=CCNC1=C2C[C@@H](C)C[C@H](OC)[C@H](O)[C@@H](C)/C=C(\C)[C@H](OC(N)=O)[C@@H](OC)/C=C\C=C(/C)C(=O)NC(=CC1=O)C2=O [Peptide 17AAG, 17AAG]",F-actin formation,Hsp90,decreased
COC1=C2C[C@@H](C)C[C@H](OC)[C@H](O)[C@@H](C)/C=C(\C)[C@H](OC(N)=O)[C@@H](OC)/C=C\C=C(/C)C(=O)NC(=CC1=O)C2=O [geldanamycin],MCC,in vitro,≤ 10 µM
"GHYFVTTFY [Peptide L13, GHYFVTTFY]",solubility,Solubility remark,less soluble
same,"cytotoxicity (viability), concentration",[2],> 100 µM
"TAKGHYFVTTFYRNG [Peptide L15, TAKGHYFVTTFYRNG]",behaviour of treated mice (side observation),S. aureus,hyperactive
same,"cytotoxicity (viability), concentration",[2],> 100 µM
